Here are results for 28 compounds from patent publication US11236046B2, “Substituted heterocyclic sulfonamide compounds useful as TRPA1 modulators” (Genentech, Inc., priority 2013, dated 2022).

Chain of human TRPA1 (O75762 whole entry): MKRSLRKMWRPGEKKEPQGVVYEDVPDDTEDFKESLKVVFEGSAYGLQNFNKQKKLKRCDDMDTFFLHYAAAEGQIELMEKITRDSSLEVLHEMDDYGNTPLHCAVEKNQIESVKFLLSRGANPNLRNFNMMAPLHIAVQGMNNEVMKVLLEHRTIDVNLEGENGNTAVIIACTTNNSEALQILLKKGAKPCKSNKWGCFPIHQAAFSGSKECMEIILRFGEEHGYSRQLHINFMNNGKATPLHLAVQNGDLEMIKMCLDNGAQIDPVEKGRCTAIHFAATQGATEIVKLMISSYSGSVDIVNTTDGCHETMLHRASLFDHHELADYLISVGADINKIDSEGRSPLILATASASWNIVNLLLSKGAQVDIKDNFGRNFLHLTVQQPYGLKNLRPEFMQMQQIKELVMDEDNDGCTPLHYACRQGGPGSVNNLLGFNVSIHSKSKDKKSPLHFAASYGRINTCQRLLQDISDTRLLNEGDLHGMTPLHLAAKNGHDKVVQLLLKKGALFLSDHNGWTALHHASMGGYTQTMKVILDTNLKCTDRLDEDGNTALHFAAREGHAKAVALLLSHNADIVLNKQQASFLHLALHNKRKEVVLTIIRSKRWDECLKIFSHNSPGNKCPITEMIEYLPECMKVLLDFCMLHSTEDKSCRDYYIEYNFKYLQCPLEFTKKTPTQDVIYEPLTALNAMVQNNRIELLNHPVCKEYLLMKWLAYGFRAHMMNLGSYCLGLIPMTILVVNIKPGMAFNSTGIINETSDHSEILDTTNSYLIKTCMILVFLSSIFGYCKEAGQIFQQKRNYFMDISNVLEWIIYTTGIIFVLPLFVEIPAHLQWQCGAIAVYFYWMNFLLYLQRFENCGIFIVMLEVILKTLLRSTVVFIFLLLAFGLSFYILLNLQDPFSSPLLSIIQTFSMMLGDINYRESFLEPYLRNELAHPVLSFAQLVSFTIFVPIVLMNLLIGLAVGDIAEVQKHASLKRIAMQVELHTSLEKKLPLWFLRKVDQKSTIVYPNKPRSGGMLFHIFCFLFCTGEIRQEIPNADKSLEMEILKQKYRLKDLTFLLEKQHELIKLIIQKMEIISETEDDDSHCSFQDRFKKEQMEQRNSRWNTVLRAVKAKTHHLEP

The assay addresses human TRPA1 (Homo sapiens (Human), UniProt O75762). The assay is described as follows: FLIPR Tetra calcium influx assay, block of cinnamaldehyde-induced calcium influx in CHO cells expressing TRPA1 (human). It counts as cell-based. The settings on record: 20 min compound incubation, 75 uM cinnamaldehyde (~EC80), Hill coefficient fixed to 1.5, read-out: hTRPA1 AUC IC50. The method, then:
IC50 Determinations of Exemplified Compounds.
IC50s (effective concentration) of compounds on the human and rat TRPA1 channels were determined using a FLIPR Tetra instrument. CHO cells expressing TRPA1 were plated into 384-well plates, incubated overnight at 37C, and loaded with BD calcium indicator dye for 1 hr at 37° C. followed by 15 minutes. at room temperature. The assay buffer was Hank's Balanced Salt Solution (HBSS) containing 20 mM HEPES (pH readjusted to 7.4) along with 0.02% BSA.
Following dye load and plate cool down, compounds were added to the cells using FLIPR Tetra. Plates were then incubated with compounds for 20 minutes at room temperature prior to adding agonist. Following this incubation, ˜EC80 concentration of cinnamaldehyde (75 uM for human TRPA1 and 45 uM for rat TRPA1) was added to active the channels and block of cinnamaldehyde induced calcium influx was measured.
Fixing the Hill coefficient will generally reduce variability of the IC50 determination. The IC50s were individually examined to make sure the MIN and MAX points were set correctly prior to validation of the results.
What is called IC50 is the concentration at which inhibition is half-maximal. Regarding `O=C(NCc1cc(-c2ccc(C(F)(F)F)cc2)ncn1)[C@@H]1C[C@H]2COC[C@H]2N1S(=O)(=O)c1ccc(F)cc1` (single isomer, unassigned) [Example 99], the IC50 was determined as 428 nM.

`O=C(NCc1cc(-c2ccc(C(F)(F)F)cc2)ncn1)[C@@H]1C[C@@H]2COC[C@@H]2N1S(=O)(=O)c1ccc(F)cc1` (single isomer, unassigned) [Example 100]: the IC50 came to 449 nM.

Take `C[C@@H]1[C@@H](C(=O)NCc2cc(-c3ccc(C(F)(F)F)nc3)ncn2)N(S(=O)(=O)c2ccc(F)cc2)C[C@@H]1F` (single isomer, unassigned) [Example 106]: the IC50 amounted to 280 nM.

With `C[C@@]1(F)C[C@@H](C(=O)NCc2cc(-c3ccc(C(F)(F)F)nc3)ncn2)N(S(=O)(=O)c2ccc(F)cc2)C1` (single isomer, unassigned) [Example 107], the IC50 turned out to be 90 nM.

For `O=C(NCc1cc(-c2ccc(C(F)(F)F)nc2)ncn1)[C@@H]1C[C@]2(CN1S(=O)(=O)c1ccc(F)cc1)CC2(F)F` (single isomer, unassigned) [Example 124], the IC50 is 113 nM.

In the case of `C[C@@]1(C(=O)NCc2cc(-c3ccc(C(F)(F)F)cc3)ncn2)C[C@@H](F)CN1S(=O)(=O)c1ccc(F)cc1` (single isomer, unassigned) [Example 138], the IC50 was determined as 25 nM.

For `C[C@@]1(C(=O)NCc2cc(-c3ccc(C(F)(F)F)nc3)ncn2)C[C@@H](F)CN1S(=O)(=O)c1ccc(F)cc1` (single isomer, unassigned) [Example 142], the IC50 was determined as 92 nM.

For `O=C(NCc1cc([C@H]2CC[C@H](C(F)(F)F)CC2)ncn1)[C@@H]1C[C@@H](F)CN1S(=O)(=O)c1ccc(F)cc1` (single isomer, unassigned) [Example 149], the IC50 was 34 nM.

For `N#Cc1ccc(-c2cnc(C(F)(F)F)nc2)cc1CNC(=O)[C@@H]1[C@@H](F)CCN1S(=O)(=O)c1ccc(F)cc1` [Example 38, (2R,3S)—N-([2-cyano-5-[2-(trifluoromethyl)pyrimidin-5-yl]phenyl]methyl)-3-fluoro-1-[(4-fluorobenzene)sulfonyl]pyrrolidine-2-carboxamide], the IC50 was 14 nM.

With `C[C@@H]1CC[C@@H](C(=O)NCc2cc(-c3ccc(C(F)(F)F)nc3)ncn2)N1S(=O)(=O)c1ccc(F)cc1` [Example 39, (2S,5R)-1-[(4-fluorobenzene)sulfonyl]-5-methyl-N-([6-[6-(trifluoromethyl)pyridin-3-yl]pyrimidin-4-yl]methyl)pyrrolidine-2-carboxamide], the IC50 is 45 nM.

Take `C[C@H]1CC[C@@H](C(=O)NCc2cc(-c3ccc(C(F)(F)F)nc3)ncn2)N1S(=O)(=O)c1ccc(F)cc1` [Example 41, (2S,5S)-1-[(4-fluorobenzene)sulfonyl]-5-methyl-N-([6-[6-(trifluoromethyl)pyridin-3-yl]pyrimidin-4-yl]methyl)pyrrolidine-2-carboxamide]: the IC50 was 5 nM.

Regarding `Cc1cc(CNC(=O)[C@@H]2C[C@@H](F)CN2S(=O)(=O)c2ccc(F)cc2)cc(-c2cnc(C(F)(F)F)nc2)n1` [Example 43, (2S,4R)-4-fluoro-1-(4-fluorophenyl)sulfonyl-N-[[2-methyl-6-[2-(trifluoromethyl)pyrimidin-5-yl]-4-pyridyl]methyl]pyrrolidine-2-carboxamide], the IC50 worked out at 47 nM.

Regarding `COc1nc(C(F)(F)F)ccc1-c1cc(F)cc(CNC(=O)[C@@H]2C[C@@H](F)CN2S(=O)(=O)c2ccc(F)cc2)c1` [Example 44, (2S,4R)-4-fluoro-N-([3-fluoro-5-[2-methoxy-6-(trifluoromethyl)pyridin-3-yl]phenyl]methyl)-1-[(4-fluorobenzene)sulfonyl]pyrrolidine-2-carboxamide], the IC50 was found to be 48 nM.

Take `C[C@@]1(F)C[C@@H](C(=O)NCc2cc(F)cc(-c3ccc(C(F)(F)F)nn3)c2)N(S(=O)(=O)c2ccc(F)cc2)C1` [Example 45, (2S,4R)-4-fluoro-1-(4-fluorophenyl)sulfonyl-N-[[3-fluoro-5-[6-(trifluoromethyl)pyridazin-3-yl]phenyl]methyl]-4-methyl-pyrrolidine-2-carboxamide]: the IC50 was found to be 24 nM.

`C[C@@]1(F)C[C@@H](C(=O)NCc2cc(-c3ccc(OC(F)(F)F)cc3)ncn2)N(S(=O)(=O)c2ccc(F)cc2)C1` [Example 46, (2S,4R)-4-fluoro-1-((4-fluorophenyl)sulfonyl)-4-methyl-N-((6-(4-(trifluoromethoxy)phenyl)pyrimidin-4-yl)methyl)pyrrolidine-2-carboxamide]: the IC50 was found to be 20 nM.

As to `C[C@@]1(F)C[C@@H](C(=O)NCc2cc(F)cc(-c3cnc(C(F)(F)F)cn3)c2)N(S(=O)(=O)c2ccc(F)cc2)C1` [Example 47, (2S,4R)-4-fluoro-N-(3-fluoro-5-(5-(trifluoromethyl)pyrazin-2-yl)benzyl)-1-((4-fluorophenyl)sulfonyl)-4-methylpyrrolidine-2-carboxamide], the IC50 turned out to be 11 nM.

Consider `Cc1cc(-c2cnc(C(F)(F)F)nc2)cc(CNC(=O)[C@@H]2C[C@@H](F)CN2S(=O)(=O)c2ccc(F)cc2)n1` [Example 48, (2S,4R)-4-fluoro-1-(4-fluorophenyl)sulfonyl-N-[[6-methyl-4-[2-(trifluoromethyl)pyrimidin-5-yl]-2-pyridyl]methyl]pyrrolidine-2-carboxamide], for which the IC50 was determined as 152 nM.

Regarding `O=C(NCc1cc(-c2ccc(C(F)(F)F)cn2)cc(F)n1)[C@@H]1C[C@@H](F)CN1S(=O)(=O)c1ccc(F)cc1` [Example 49, (2S,4R)-4-fluoro-N-([6-fluoro-4-[5-(trifluoromethyl)pyridin-2-yl]pyridin-2-yl]methyl)-1-[(4-fluorobenzene)sulfonyl]pyrrolidine-2-carboxamide], the IC50 came to 9 nM.

Consider `N#Cc1nn(-c2ccc(C(F)(F)F)cc2)cc1CNC(=O)[C@@H]1C[C@@H](F)CN1S(=O)(=O)c1ccc(F)cc1` [Example 50, (2S,4R)—N-([3-cyano-1-[4-(trifluoromethyl)phenyl]-1H-pyrazol-4-yl]methyl)-4-fluoro-1-[(4-fluorobenzene)sulfonyl]pyrrolidine-2-carboxamide], for which the IC50 stood at 60 nM.

In the case of `O=C(NCc1cc(-c2ccc(C(F)(F)F)nc2)ncn1)C1C2CC(CC2F)N1S(=O)(=O)c1ccc(F)cc1` (stereo not shown) [Example 51, 5-fluoro-2-(4-fluorophenyl)sulfonyl-N-[[6-[6-(trifluoromethyl)-3-pyridyl]pyrimidin-4-yl]methyl]-2-azabicyclo[2.2.1]heptane-3-carboxamide], the IC50 was 52 nM.

In the case of `C[C@@]1(F)C[C@@H](C(=O)NCc2cc(F)cc(-c3cnc(C(F)(F)F)nc3)c2)N(S(=O)(=O)c2ccc(F)cc2)C1` [Example 52, (2S,4R)-4-fluoro-N-(3-fluoro-5-(2-(trifluoromethyl)pyrimidin-5-yl)benzyl)-1-((4-fluorophenyl)sulfonyl)-4-methylpyrrolidine-2-carboxamide], the IC50 is 16 nM.

For `O=C(NCc1cc(-c2cnc(C(F)(F)F)nc2)ccn1)[C@@H]1C[C@@H](F)CN1S(=O)(=O)c1ccc(F)cc1` [Example 53, (2S,4R)-4-fluoro-1-(4-fluorophenyl)sulfonyl-N-[[4-[2-(trifluoromethyl)pyrimidin-5-yl]-2-pyridyl]methyl]pyrrolidine-2-carboxamide], the IC50 was determined as 411 nM.

On to `O=C(NCc1cc(-c2cnc(C(F)(F)F)cn2)ccc1F)[C@@H]1C[C@@H](F)CN1S(=O)(=O)c1ccc(F)cc1` [Example 54, (2S,4R)-4-fluoro-N-(2-fluoro-5-(5-(trifluoromethyl)pyrazin-2-yl)benzyl)-1-((4-fluorophenyl)sulfonyl)pyrrolidine-2-carboxamide], for which the IC50 turned out to be 13 nM.

Turning to `O=C(NCc1cc(-c2ccc(C(F)F)cc2)ncn1)[C@@H]1[C@@H](F)CCN1S(=O)(=O)c1ccc(F)cc1` [Example 55, (2R,3S)—N-[[6-[4-(difluoromethyl)phenyl]pyrimidin-4-yl]methyl]-3-fluoro-1-(4-fluorophenyl)sulfonyl-pyrrolidine-2-carboxamide], the IC50 is 33 nM.

Turning to `O=C(NCc1cc(-c2cnc(C(F)(F)F)nc2)ccc1F)[C@@H]1C[C@@H](F)CN1S(=O)(=O)c1ccc(F)cc1` [Example 56, (2S,4R)-4-fluoro-N-(2-fluoro-5-(2-(trifluoromethyl)pyrimidin-5-yl)benzyl)-1-((4-fluorophenyl)sulfonyl)pyrrolidine-2-carboxamide], the IC50 stood at 11 nM.

Take `O=C(NCc1ccnc(-c2ccc(C(F)(F)F)cc2O)c1)[C@@H]1C[C@@H](F)CN1S(=O)(=O)c1ccc(F)cc1` [Example 57, (2S,4R)-4-fluoro-1-(4-fluorophenyl)sulfonyl-N-[[2-[2-hydroxy-4-(trifluoromethyl)phenyl]-4-pyridyl]methyl]pyrrolidine-2-carboxamide]: the IC50 was 5 nM.

`COc1nn(-c2cnc(C(F)(F)F)cn2)cc1CNC(=O)[C@@H]1C[C@@H](F)CN1S(=O)(=O)c1ccc(F)cc1` [Example 58, (2S,4R)-4-fluoro-1-(4-fluorophenyl)sulfonyl-N-[[3-methoxy-1-[5-(trifluoromethyl)pyrazin-2-yl]pyrazol-4-yl]methyl]pyrrolidine-2-carboxamide]: the IC50 amounted to 14 nM.

Consider `O=C(NCc1cc(-c2ccc(C(F)F)c(F)c2)ncn1)[C@@H]1C[C@@H](F)CN1S(=O)(=O)c1ccc(F)cc1` [Example 59, (2S,4R)—N-[[6-[4-(difluoromethyl)-3-fluoro-phenyl]pyrimidin-4-yl]methyl]-4-fluoro-1-(4-fluorophenyl)sulfonyl-pyrrolidine-2-carboxamide], for which the IC50 worked out at 29 nM.
